According to patent US5468469A, “Methods of using azo dyes and their derivatives” (The United States of America as represented by the …, priority 1994, dated 1995):

Experiments:
[1] = tested on: HIV isolate LAV-1BR; assay: HIV replication in phytohemagglutinin-stimulated human PBL, intracellular p24 ELISA; type: cell-based; settings: six days culture; for pg/ml HIV p24: virus only 101,000
From the text: The ability of the azo dyes to negatively affect HIV replication was verified after six days of culturing the HIV isolate LAV-1BR in phytohemagglutinin-stimulated human PBL. For this experiment, the amount of intracellular HIV p24 protein in cell lysates was quantitated with use of an HIV p24 enzyme linked immunosorbent assay kit (Cellular Products, Buffalo, N.Y.) as described in Anand et al., AIDS Res. Human Retrovir., 6, 679-689 (1990). This measure of p24 protein was considered an indication of HIV replication. Aurintricarboxylic acid (ATA; Sigma Chemical Co., St. Louis, Mo.) was included in this experiment as a positive control, and the solvent DMSO was utilized for further comparative purposes.

[2] = biological target: T1, CD4 (Homo sapiens, UniProt P01730); assay: Dose-response of inhibition of αCD4 binding in presence (RPMI 1640 with 5% serum) and absence (PBS) of serum; settings: RPMI 1640 with 5% serum versus PBS; FIG. 1
T1 construct: PBL were prepared by density gradient centrifugation; endogenous in cells; host or cells: human peripheral blood lymphocytes (PBL)
Description: (§1) For these binding assays, PBL were prepared by density gradient centrifugation, and the effect of the azo dyes on the binding of anti-CD4-FITC (Becton Dickinson, Mountain View, Calif.) was measured (Weaver et al., supra). Cells were treated with an azo dye for at least 10 minutes at room temperature, or for more than 30 minutes at 4° C., and were then contacted with FITC-labeled antibody. Binding was measured by quantitating cell bound fluorescence using flow cytometry.

[3] = biological target: T1, CD4; assay: Inhibition of binding of αCD4-FITC (anti-Leu3a) to PBL, flow cytometry
Description: as §1

[4] = biological target: T2, HIV rgp120 binding to CD4 (Homo sapiens, UniProt P01730); assay: Inhibition of HIV rgp120 binding to CD4 on PBL, detected with anti-rgp120-FITC; settings: PBS, % logarithmic mean channel number of rgp120 binding detected by αrgp120-FITC
T2 construct: PBL were prepared by density gradient centrifugation; endogenous in cells; host or cells: human peripheral blood lymphocytes (PBL)
Description: as §1, with “Since anti-Leu3a (αCD4) and recombinant HIV coat protein (rgp120) bind to the same site on the CD4 molecule, interference in binding of CD4 confirms interference in HIV binding to αCD4 (Weaver et al., AIDS Res. Human Retrovir., 6, 1125-1130 (1990)). For” for “For”
The ability of Direct Orange 26, Direct Red 23, Direct Red 24, and Direct Red 26 to inhibit the binding of HIV rgp120 to CD4 was determined using monoclonal anti-rgp120-FITC (Genentech, Inc., San Francisco, Calif.) to detect recombinant HIV coat protein in the binding assay described in Example 1.

[5] = biological target: T3, CD3 (αCD3 binding to PBL) (Homo sapiens, UniProt P07766); assay: Specificity: binding of αCD3-FITC to PBL; settings: PBS, % logarithmic mean channel number of αCD3-FITC binding, read-out: % Control Binding (αCD3)
T3 construct: endogenous in cells; host or cells: human peripheral blood lymphocytes (PBL)

[6] = biological target: T4, CD8 (αCD8 binding to PBL) (Homo sapiens, UniProt P01732); assay: Specificity: binding of αCD8-FITC to PBL; settings: PBS, % logarithmic mean channel number of αCD8-FITC binding, read-out: % Control Binding (αCD8)
T4 construct: endogenous in cells; host or cells: human peripheral blood lymphocytes (PBL)
Description: as §1, with “Since anti-Leu3a (αCD4) and recombinant HIV coat protein (rgp120) bind to the same site on the CD4 molecule, interference in binding of CD4 confirms interference in HIV binding to αCD4 (Weaver et al., AIDS Res. Human Retrovir., 6, 1125-1130 (1990)). For” for “For”
The specificity of the dyes was confirmed by testing their ability to interfere with the binding of two other monoclonal antibodies, αCD3 and αCD8, to PBL using the binding assay described in Example 1.

[7] = Viability of PBL after 72 hour culture with αTCR stimulation, propidium iodide exclusion; type: cell-based, human; settings: pbl
Description: (§2) Cells were then washed once in PBS, and resuspended in PBS with 3 μg/ml propidium iodide. After 10 minutes incubation, the cells were analyzed by flow cytometry. Live cells were defined as those excluding propidium iodide.

[8] = tested on: PBL; assay: as above; type: cell-based, human
Description: as §2

[9] = read-out: % Control Binding (HIV rgp120)
[10] = 20 μM, PBS, % logarithmic mean channel number of αCD4-FITC binding

T4 sequence (P01732 22-235): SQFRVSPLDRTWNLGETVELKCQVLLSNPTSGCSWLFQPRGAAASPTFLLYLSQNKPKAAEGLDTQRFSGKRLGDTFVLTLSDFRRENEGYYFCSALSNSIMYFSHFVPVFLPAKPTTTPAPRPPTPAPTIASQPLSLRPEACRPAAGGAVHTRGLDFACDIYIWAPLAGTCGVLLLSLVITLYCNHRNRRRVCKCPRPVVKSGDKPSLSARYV
T4 sequence (P10966 22-210 partner): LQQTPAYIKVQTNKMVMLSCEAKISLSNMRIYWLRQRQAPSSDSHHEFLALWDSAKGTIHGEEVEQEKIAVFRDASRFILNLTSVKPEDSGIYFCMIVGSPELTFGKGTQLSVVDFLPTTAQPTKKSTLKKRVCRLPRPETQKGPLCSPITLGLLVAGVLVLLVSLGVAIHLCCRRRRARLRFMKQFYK
T3 sequence (P07766 23-207): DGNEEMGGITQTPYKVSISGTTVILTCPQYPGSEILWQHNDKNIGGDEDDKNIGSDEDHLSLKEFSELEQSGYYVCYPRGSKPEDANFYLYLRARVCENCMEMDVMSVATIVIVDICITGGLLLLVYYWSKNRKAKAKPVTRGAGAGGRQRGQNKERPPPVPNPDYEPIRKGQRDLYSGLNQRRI
T3 sequence (P04234 22-171 partner): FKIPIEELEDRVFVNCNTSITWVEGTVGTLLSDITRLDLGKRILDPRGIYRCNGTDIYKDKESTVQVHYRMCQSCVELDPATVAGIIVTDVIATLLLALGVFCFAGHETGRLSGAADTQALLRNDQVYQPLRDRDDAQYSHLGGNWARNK
T3 sequence (P09693 23-182 partner): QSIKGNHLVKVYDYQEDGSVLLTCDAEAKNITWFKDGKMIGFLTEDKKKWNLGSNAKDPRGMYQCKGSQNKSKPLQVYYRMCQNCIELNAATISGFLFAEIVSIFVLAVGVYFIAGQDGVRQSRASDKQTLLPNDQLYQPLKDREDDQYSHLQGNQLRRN
T3 sequence (P20963 22-164 partner): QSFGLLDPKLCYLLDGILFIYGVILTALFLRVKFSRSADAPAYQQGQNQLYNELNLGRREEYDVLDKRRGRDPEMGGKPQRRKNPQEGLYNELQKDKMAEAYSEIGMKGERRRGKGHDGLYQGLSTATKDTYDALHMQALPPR

Molecule: O=C(O)C1=CC(=C(c2ccc(O)c(C(=O)O)c2)c2ccc(O)c(C(=O)O)c2)C=CC1=O [ATA, Aurintricarboxylic acid, reference compound]
- pg/ml HIV p24 ([1]; 50 μg/ml): 1 pg/mL

Molecule: O=S(=O)([O-])c1ccc2c(N=Nc3ccccc3)ccc(N=Nc3ccc(Nc4ccccc4)c4c(S(=O)(=O)[O-])cccc34)c2c1.[Na+].[Na+] [Acid Blue 116]
- Fold more dye needed to inhibit αCD4 binding in the presence of serum [2]: about 100 ×

Molecule: Cc1ccccc1N=Nc1ccc(N=Nc2c(O)c(S(=O)(=O)[O-])cc3cc(S(=O)(=O)[O-])ccc23)c(C)c1.[Na+].[Na+] [Acid Red 115]
- Fold more dye needed to inhibit αCD4 binding in the presence of serum [2]: about 100 ×

Molecule: O=C(Nc1ccc2c(O)c(N=Nc3ccccc3)c(S(=O)(=O)O)cc2c1)Nc1ccc2c(O)c(N=Nc3ccccc3)c(S(=O)(=O)O)cc2c1 [Direct Orange 26]
- Inhibition of the binding of αCD4 to CD4 (in words) ([3]; 10 μM): completely inhibited
- remaining activity at 10 µM ([3]; 10 μM, PBS, % logarithmic mean channel number of αCD4-FITC binding, read-out: % Control Binding (αCD4)): 0%
- remaining activity at 1 µM [4, 9]: 26%
- remaining activity at 2.5 µM ([4]; 2.5 μM, read-out: % Control Binding (HIV rgp120)): 15%
- remaining activity at 10 µM [5]: 103%
- remaining activity at 10 µM [6]: 65%
- Fold more dye needed to inhibit αCD4 binding in the presence of serum [2]: about 5 ×
- viability at 72 h, 400 µM ([7]; 400 μM, untreated 78.2, read-out: % Viable Cells): 67.5%
- viability at 72 h, 800 µM ([7]; 800 μM, untreated 78.2, read-out: % Viable Cells): 71.5%
- cytotoxicity at 72 h ([7]; 400-800 μM, read-out: Reduction of viability): ≤ 10%
- Effect on PBL viability / lymphocyte proliferation (in words) [8]: only a slight negative effect
- pg/ml HIV p24 ([1]; 50 μg/ml): 71 pg/mL
- pg/ml HIV p24 ([1]; 100 μg/ml): 61 pg/mL
- Effect on HIV replication (in words) ([1]; 50-100 μg/ml): strongly decrease HIV replication

Molecule: CC(=O)Nc1ccc(N=Nc2c(S(=O)(=O)O)cc3cc(NC(=O)Nc4ccc5c(O)c(N=Nc6ccccc6)c(S(=O)(=O)O)cc5c4)ccc3c2O)cc1 [Direct Red 23]
- Inhibition of the binding of αCD4 to CD4 (in words) ([3]; 20 μM): completely inhibited
- remaining activity at 20 µM ([3]; 20 μM, PBS, % logarithmic mean channel number of αCD4-FITC binding, read-out: % Control Binding (αCD4)): 0%
- remaining activity at 5 µM ([4]; 5.0 μM, read-out: % Control Binding (HIV rgp120)): 10 to 15%

Molecule: COc1ccccc1N=Nc1c(S(=O)(=O)[O-])cc2cc(NC(=O)Nc3ccc4c(O)c(N=Nc5ccc(S(=O)(=O)[O-])cc5C)c(S(=O)(=O)[O-])cc4c3)ccc2c1O.[Na+].[Na+].[Na+] [Direct Red 24]
- Inhibition of the binding of αCD4 to CD4 (in words) ([3]; 20 μM): completely inhibited
- % Control Binding (αCD4) [3, 10]: 0%
- % Control Binding (HIV rgp120) ([4]; 5.0 μM): 10-15%

Molecule: COc1cc(N=Nc2cc(S(=O)(=O)[O-])cc3cc(S(=O)(=O)[O-])cc(O)c23)c(C)cc1NC(=O)Nc1cc(C)c(N=Nc2cc(S(=O)(=O)[O-])cc3cc(S(=O)(=O)[O-])cc(O)c23)cc1OC.[Na+].[Na+].[Na+].[Na+] [Direct Red 79]
- Fold more dye needed to inhibit αCD4 binding in the presence of serum [2]: about 100 ×

Molecule: Cc1cc(-c2ccc(/N=N/c3ccc4c(S(=O)(=O)O)cc(S(=O)(=O)O)c(N)c4c3O)c(C)c2)ccc1/N=N/c1ccc2c(S(=O)(=O)O)cc(S(=O)(=O)O)c(N)c2c1O [Evans Blue, Evans blue, reference compound]
- % Control Binding (αCD4) ([3]; 1 μM, PBS, % logarithmic mean channel number of αCD4-FITC binding): 1%
- remaining activity at 1 µM ([3]; 1 μM, PBS, % logarithmic mean channel number of αCD4-FITC binding, read-out: % Control Binding (αCD4)): 1%
- remaining activity at 1 µM [4, 9]: 8%

Molecule: Direct Red 26
- Inhibition of the binding of αCD4 to CD4 (in words) ([3]; 20 μM): completely inhibited
- % Control Binding (αCD4) [3, 10]: 0%
- % Control Binding (HIV rgp120) ([4]; 5.0 μM): 10-15%
